Consider one compound from BindingDB's records for doi:10.1016/j.bmc.2013.10.054 (Punjabi University, 2014).

For the experiment, the target named is T1, P2X purinoceptor 7 (Homo sapiens, UniProt Q99572).
T1 sequence (Q99572 whole entry): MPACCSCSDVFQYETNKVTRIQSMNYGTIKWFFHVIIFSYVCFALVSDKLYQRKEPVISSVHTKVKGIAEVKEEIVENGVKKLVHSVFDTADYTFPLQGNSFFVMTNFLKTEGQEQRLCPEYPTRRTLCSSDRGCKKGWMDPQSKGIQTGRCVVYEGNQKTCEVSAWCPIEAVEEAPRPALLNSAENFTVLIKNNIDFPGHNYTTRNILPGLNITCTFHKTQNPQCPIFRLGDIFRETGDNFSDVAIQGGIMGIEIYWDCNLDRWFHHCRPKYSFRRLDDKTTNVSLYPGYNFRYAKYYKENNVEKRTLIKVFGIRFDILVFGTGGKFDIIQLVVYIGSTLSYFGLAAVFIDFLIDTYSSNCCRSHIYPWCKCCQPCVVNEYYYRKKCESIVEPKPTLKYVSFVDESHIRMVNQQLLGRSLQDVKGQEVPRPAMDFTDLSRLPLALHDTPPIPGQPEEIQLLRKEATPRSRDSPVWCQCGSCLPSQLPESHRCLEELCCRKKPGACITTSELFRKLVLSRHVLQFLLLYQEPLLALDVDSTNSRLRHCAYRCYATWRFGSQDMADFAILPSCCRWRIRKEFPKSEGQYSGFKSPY
Kind of experiment: Antagonist activity at P2X7 receptor (unknown origin).

In turn, `O=C(Cn1cc(O)n(-c2ccccc2)c1=O)NCc1ccc(F)cc1Cl` had an IC50 of less than 1000 nM.
